From patent publication US20220064196A1, “EGFR Inhibitors, Compositions and Methods Thereof” (Betta Pharmaceuticals Co., Ltd., priority 2019, published 2022)
pIC50: −log10 of the molar value. Read-outs that look alike come from different tables or passages of the source.

Experiments:
EGFR Del19/T790M/C797S = EGFR Del19/T790M/C797S (Homo sapiens, UniProt P00533, T790M/C797S, form not given); assay: Kinase assay (mobility shift), EGFR Del19/T790M/C797S; format: biochemical
Method: (§1) Test 1 Kinase Assay for EGFR Del19/T790M/C797S and EGFR Wildtype
(§2) Enzyme reaction protocol are as follows:
(§3) 1. Preparing 1* Kinase buffer as followed.
(§4) 2. Preparing Compound Concentration Gradient: Compounds were tested at a concentration of 300 nM, diluted to 100-fold final concentration in 100% DMSO solution in 96-well plates, and compounds were diluted 3 times with Precision, 10 concentrations. Each concentration of the compound was then further diluted to a 5-fold final concentration of the intermediate dilution solution using 1* Kinase buffer.
(§5) 3.5 μL of each of the prepared intermediate dilution compounds was separately added to the compound wells of the 384-well plate, and each concentration was tested for duplicate wells; 5 μL of 5% DMSO was added to the negative control wells and the positive control wells, respectively.
(§6) 4. 2.5-fold final concentration of the kinase solution was prepared using 1*Kinase buffer.
(§7) 5. Add 10 μL of 2.5-fold final concentration of kinase solution to the compound well and positive control well; add 10 μL of 1*Kinase buffer to the negative control well.
(§8) 6. Centrifuge at 1000 rpm for 30 seconds, shake the reaction plate and incubate for 10 minutes at room temperature.
(§9) 7. A mixed solution of 2.5 times the final concentration of ATP and Kinase substrate (5-FAM-EEPLYWSFPAKKK-CONH2) was prepared using 1*Kinase buffer.
(§10) 8. 10 μL of a 2.5-fold final concentration of a mixed solution of ATP and a substrate was added to initiate the reaction.
(§11) 9. Centrifuge the 384-well plate at 1000 rpm for 30 seconds, mix by shaking, and incubate at room temperature for the corresponding time.
(§12) 10. Add 30 μL of the stop solution to stop the kinase reaction, centrifuge at 1000 rpm for 30 seconds, and mix by shaking.
(§13) 11. Read the conversion rate with Caliper EZ Reader.
(§14) Convert conversion values to inhibition values:
(§15) Percent inhibition 32 (max-conversion)/(max-min)*100.
(§16) “max” stands for the mean value of the positive control well ratio; “min” stands for the mean value of the negative control well.
(§17) Fit the data in log(inhibitor) vs. response Variable slope of GraphPad Prism 5 to obtain IC50 values.
(§18) Equation used is: Y=Bottom+(Top-Bottom)/(1+(IC50/X)^HillSlope)

EGFR L858R/T790M/C797S = EGFR L858R/T790M/C797S (Homo sapiens, UniProt P00533, C797S/L858R/T790M); assay: Kinase assay (mobility shift), EGFR L858R/T790M/C797S; format: biochemical; conditions: numeric values
Sequence of EGFR L858R/T790M/C797S (P00533 25-1210 T790M/C797S/L858R): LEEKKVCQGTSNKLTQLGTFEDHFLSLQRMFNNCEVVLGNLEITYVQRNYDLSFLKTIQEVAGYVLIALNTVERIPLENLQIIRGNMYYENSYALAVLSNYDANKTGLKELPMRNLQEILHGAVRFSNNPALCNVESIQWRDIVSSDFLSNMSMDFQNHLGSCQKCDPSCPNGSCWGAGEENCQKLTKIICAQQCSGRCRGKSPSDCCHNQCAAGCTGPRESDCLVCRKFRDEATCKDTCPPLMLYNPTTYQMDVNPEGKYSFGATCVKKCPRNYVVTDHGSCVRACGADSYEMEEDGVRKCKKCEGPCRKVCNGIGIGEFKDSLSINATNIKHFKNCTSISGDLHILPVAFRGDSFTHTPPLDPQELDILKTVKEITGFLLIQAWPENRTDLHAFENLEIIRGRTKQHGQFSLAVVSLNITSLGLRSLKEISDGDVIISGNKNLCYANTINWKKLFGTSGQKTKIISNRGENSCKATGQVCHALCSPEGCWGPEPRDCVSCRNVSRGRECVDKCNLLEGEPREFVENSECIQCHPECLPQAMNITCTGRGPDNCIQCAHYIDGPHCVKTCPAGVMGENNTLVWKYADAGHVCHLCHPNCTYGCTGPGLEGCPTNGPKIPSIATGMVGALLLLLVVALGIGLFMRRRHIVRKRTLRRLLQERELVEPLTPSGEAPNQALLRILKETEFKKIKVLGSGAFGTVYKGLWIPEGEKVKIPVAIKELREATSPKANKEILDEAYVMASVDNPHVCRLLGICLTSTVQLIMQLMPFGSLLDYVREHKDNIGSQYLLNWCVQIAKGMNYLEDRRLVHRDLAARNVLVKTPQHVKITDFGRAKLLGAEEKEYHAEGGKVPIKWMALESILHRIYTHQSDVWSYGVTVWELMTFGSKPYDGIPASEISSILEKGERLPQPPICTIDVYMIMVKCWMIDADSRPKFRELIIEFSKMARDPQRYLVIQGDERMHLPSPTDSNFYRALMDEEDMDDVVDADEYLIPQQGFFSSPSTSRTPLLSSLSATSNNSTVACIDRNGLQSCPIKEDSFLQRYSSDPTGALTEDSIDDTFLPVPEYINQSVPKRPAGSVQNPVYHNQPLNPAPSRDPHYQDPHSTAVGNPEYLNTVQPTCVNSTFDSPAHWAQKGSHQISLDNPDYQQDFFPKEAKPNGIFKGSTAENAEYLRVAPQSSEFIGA
Method: [Worded in the source for another variant; this variant is reported under the same test.] as §1, §2, §3, §4, §5, §6, §7, §8, §9, §10, §11, §12, §13, §14, §15, §16, §17, §18

Ba/F3-Del19/T790M/C797S = Ba/F3-Del19/T790M/C797S (Homo sapiens, UniProt P00533, T790M/C797S, cells depend on it, form not given); assay: Ba/F3-Del19/T790M/C797S cells proliferation assay (CellTiter Glo); format: cell-based; conditions: cell proliferation, 72 h, read-out: Ba/F3-Del19/T790M/C797S IC50
Sequence of Ba/F3-Del19/T790M/C797S (P00533 with tags, fused parts or gaps DEL746-750/T790M/C797S, form open): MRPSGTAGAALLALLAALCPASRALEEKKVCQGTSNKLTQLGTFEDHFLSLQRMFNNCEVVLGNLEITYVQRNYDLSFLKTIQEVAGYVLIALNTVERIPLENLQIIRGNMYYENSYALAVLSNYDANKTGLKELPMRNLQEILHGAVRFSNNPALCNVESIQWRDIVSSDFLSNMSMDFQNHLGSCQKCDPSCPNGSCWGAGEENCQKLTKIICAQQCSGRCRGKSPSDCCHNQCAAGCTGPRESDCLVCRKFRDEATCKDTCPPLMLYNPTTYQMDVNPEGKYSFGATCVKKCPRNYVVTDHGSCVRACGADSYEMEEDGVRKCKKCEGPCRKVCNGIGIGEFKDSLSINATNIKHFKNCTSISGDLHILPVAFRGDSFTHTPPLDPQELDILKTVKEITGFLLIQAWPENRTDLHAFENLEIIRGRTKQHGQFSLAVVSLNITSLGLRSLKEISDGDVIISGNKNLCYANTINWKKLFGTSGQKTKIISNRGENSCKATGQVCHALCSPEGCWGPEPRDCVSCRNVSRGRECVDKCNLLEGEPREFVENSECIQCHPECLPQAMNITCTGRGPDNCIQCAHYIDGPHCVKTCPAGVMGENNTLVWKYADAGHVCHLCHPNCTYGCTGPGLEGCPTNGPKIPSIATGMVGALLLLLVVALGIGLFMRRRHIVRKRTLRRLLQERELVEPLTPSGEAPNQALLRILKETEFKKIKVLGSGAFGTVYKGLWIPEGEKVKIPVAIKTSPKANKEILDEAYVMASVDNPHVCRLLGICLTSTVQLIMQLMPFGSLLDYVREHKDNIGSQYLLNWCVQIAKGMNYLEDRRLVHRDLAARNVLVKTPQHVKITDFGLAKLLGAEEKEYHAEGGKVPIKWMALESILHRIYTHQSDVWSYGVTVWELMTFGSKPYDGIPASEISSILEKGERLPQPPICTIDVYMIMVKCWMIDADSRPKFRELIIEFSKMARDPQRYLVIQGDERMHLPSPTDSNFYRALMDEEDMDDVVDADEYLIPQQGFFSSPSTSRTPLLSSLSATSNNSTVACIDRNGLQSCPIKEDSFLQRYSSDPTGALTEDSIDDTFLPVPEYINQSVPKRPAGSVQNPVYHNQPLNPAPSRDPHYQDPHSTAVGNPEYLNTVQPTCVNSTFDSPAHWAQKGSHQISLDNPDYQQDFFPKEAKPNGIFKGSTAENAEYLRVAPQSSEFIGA
Method: (§19) a) The medium was preheated in a 37°0 C. water bath in advance.
(§20) b) Remove the cryogenic vials from the liquid nitrogen tank, quickly put it into a 37° C. water bath, and completely melt it in 1 min.
(§21) c) Transfer the cell suspension to a 15 mL centrifuge tube containing 8 mL medium, centrifuge 1000 rpm, 5 min.
(§22) d) Discard the supernatant, resuspend the cells in 1 mL medium, and transfer to a 75 cm^2 flask containing 15 mL medium, culture the cells in an incubator at 37° C., 5% CO2.
(§23) a) The medium was preheated in a 37° C. water bath in advance.
(§24) b) Collect cell to a 15 mL centrifuged tube, centrifuge at 1000 rpm for 5 min. Discard the supernatant, count, and make the cell density at 1×10^4 cells/mL, then place it in a 37° C., 5% CO2 incubator.
(§25) a) The test compound (20 mM stock solution) was diluted to 200uM with 100% DMSO as starting concentration then 3-fold serial diluted with “9+0” concentrations. in a 96-well dilution plate (Cat # P-05525, Labcyte);
(§26) b) The above compound solution was diluted 1:20 times with culture medium to prepare a 10 fold working solution;
(§27) a) Take cells in log phase growth, centrifuge at 1000 rpm for 5 min, then resuspend the cells with culture medium, then count cells;
(§28) b) Cells were seeded to 96-well cell culture plate with density at 2000 cells/well;
(§29) a) Compounds prepared at step 2 were added to cell plate with 15 μL per well, the final concentrations were 1000,333, 111.1, 37,12.3, 4.1, 1.4, 0.5, 0.2 and 0 nM, and the final concentration of DMSO was 0.5%. The blank control well was a culture medium (0.5% DMSO);
(§30) b) The cells were incubated for an additional 72 h in the incubator.
(§31) a) Remove the 96-well cell culture plate and add 50 μl of CTG reagent (CellTiter Glo kit, promega, Cat # G7573).
(§32) b) Plate was shaked for 2 min and then let it cool for 10 min at room temperature.
(§33) c) The Luminescence signal value was read using a PerkinElmer reader. Experimental data analysis
(§34) Data were analyzed using GraphPad Prism 6.0 software to obtain a fitted curve of compound activity.
(§35) Fit the Compound IC50 from non-linear regression equation:
(§36) Y=Bottom+(Top-Bottom)/(1+10((LogIC50-X)×Hill Slope));
(§37) X: The log of the concentration of the compound; Y: Luminescence value.
(§38) The cells proliferation assay results are expressed with IC50, shown as Table 2.

[1] = Pharmacokinetic assay, oral administration; format: in vivo; conditions: rat, male SD rats, p.o. 5 mg/kg, plasma, formulation differs per row
Method: Test 5 Pharmacokinetic Assay
Male SD rats, oral administration (intragastric administration), 3 in each group. Animals administered by gavage were fasted overnight before the experiment, and the fasting time was from at least 12 hours before administration to 4 hours after administration. The blood was collected using the orbital vein. Time of blood collection by oral administration: 15 min, 30 min, 1 h, 2 h, 4 h, 7 h, 24 h. The blood collection volume was 300 uL, and after anticoagulation with 2.0% EDTA, the blood was centrifuged at 4000 rpm for 5 min, and the blood plasma was taken for about 100 uL, and placed in −20° C. for examination. The plasma sample was analyzed using liquid chromatography tandem mass spectrometry (LC-MS/MS). Plasma concentration-time data for individual animals were analyzed using WinNonlin (V4.1, Pharsight) software with a non-compartmental model and the pharmacokinetic parameters of the test compounds were calculated.

Ba/F3-L858R/T790M/C797S = Ba/F3-L858R/T790M/C797S (Homo sapiens, UniProt P00533, T790M/C797S/L858R, cells depend on it); assay: Ba/F3-L858R/T790M/C797S cells proliferation assay (CellTiter Glo); format: cell-based; conditions: cell proliferation, 72 h, read-out: Ba/F3-L858R/T790M/C797S IC50
Sequence of Ba/F3-L858R/T790M/C797S (P00533 whole entry T790M/C797S/L858R): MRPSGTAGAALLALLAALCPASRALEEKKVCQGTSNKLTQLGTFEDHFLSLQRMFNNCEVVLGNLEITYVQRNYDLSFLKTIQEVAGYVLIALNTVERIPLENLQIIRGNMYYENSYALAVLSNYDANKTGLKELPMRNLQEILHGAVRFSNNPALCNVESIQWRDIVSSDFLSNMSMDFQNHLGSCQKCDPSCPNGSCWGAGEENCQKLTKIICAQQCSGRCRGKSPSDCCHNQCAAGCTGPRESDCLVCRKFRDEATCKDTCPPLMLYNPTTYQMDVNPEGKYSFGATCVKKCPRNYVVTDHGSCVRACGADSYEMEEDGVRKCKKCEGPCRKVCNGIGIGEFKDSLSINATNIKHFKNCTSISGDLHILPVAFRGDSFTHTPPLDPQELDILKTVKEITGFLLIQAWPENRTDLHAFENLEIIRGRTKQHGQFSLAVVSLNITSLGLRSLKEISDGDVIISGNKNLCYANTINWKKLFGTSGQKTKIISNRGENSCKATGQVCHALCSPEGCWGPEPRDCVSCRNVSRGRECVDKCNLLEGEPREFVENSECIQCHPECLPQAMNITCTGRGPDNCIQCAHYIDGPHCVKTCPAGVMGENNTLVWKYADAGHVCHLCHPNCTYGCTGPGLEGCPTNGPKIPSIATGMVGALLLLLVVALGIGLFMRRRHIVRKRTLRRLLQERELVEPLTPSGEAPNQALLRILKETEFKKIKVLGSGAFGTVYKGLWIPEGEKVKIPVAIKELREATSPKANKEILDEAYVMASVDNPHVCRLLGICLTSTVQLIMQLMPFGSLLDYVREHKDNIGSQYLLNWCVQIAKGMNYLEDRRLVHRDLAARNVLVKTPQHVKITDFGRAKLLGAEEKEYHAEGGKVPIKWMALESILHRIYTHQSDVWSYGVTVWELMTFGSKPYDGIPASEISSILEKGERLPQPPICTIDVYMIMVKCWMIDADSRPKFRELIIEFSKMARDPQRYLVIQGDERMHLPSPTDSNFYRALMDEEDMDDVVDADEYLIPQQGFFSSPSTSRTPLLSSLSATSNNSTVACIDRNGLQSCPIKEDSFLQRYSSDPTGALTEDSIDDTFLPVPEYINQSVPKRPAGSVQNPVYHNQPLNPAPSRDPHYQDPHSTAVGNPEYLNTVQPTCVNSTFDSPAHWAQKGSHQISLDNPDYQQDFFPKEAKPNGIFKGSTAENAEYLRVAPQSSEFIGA
Method: as §19, §20, §21, §22, §23, §24, §25, §26, §27, §28, §29, §30, §31, §32, §33, §34, §35, §36, §37, §38

A431 (WT) = assay: A431 cells proliferation assay (CellTiter Glo); format: cell-based; conditions: Homo sapiens, A-431; cell proliferation, 72 h
Method: Test 4 A431 Cells Proliferation Assay
DMEM and 10% FBS and 1% PS.
as §23, §20, §21, §22, §24
a) The test compound (20 mM stock solution) was diluted to 2 mM with 100% DMSO as starting concentration then 3-fold serial diluted with “9+0” concentrations. in a 96-well dilution plate (Cat # P-05525, Labcyte);
b) The above compound solution was diluted 1:40 times with culture medium to prepare a 5 fold working solution;
as §27
b) Cells were seeded to 96-well cell culture plate with density at 5000 cells/well;
a) Compounds prepared at step 2 were added to cell plate with 40 μL per well, the final concentrations were 10000, 3333,1111.1, 370.4, 123.5, 41.2, 13.7, 4.6, 1.5 and 0 nM, and the final concentration of DMSO was 0.5%. The blank control well was a culture medium (0.5% DMSO);
as §30
a) Remove the 96-well cell culture plate and add 60 μl of CTG reagent (CellTiter Glo kit, promega, Cat # G7573).
as §32
c) The Luminescence signal value was read using a PerkinElmer reader.
Experimental Data Analysis
as §34, §35
Y=Bottom+(Top-Bottom)/(1+10((LogIC50-X)×HillSlope));
as §37
The cells proliferation assay results are expressed with IC50, shown as Table 3.

EGFR WT = EGFR WT (Homo sapiens, UniProt P00533); assay: Kinase assay (mobility shift), EGFR wildtype; format: biochemical; conditions: top concentration 300 nM
Method: as §1, §2, §3, §4, §5, §6, §7, §8, §9, §10, §11, §12, §13, §14, §15, §16, §17, §18

Sequence of EGFR Del19/T790M/C797S (P00533 with tags, fused parts or gaps DEL746-750/T790M/C797S, form open): as the sequence (P00533 with tags, fused parts or gaps DEL746-750/T790M/C797S, form open) above

SMILES	pIC50 (EGFR Del19/T790M/C797S)	pIC50 (EGFR L858R/T790M/C797S)	GI50 (Ba/F3-Del19/T790M/C797S; class symbols)	AUC(0-t) [1]	Cmax [1]	Tmax [1]	half-life [1]	GI50 (Ba/F3-L858R/T790M/C797S; class symbols)	pIC50 (A431 (WT))	GI50 (Ba/F3-Del19/T790M/C797S; numeric values)	GI50 (Ba/F3-L858R/T790M/C797S; numeric values)	pIC50 (EGFR WT)
CN(C)C1CC2(CCN(c3ccc(Nc4ncc(Cl)c(Nc5ccccc5P(C)(C)=O)n4)cc3Cl)CC2)C1 [Example 6, (2-((5-chloro-2-((3-chloro-4-(2-(dimethylamino)-7-azaspiro[3.5]nonan-7-yl)phenyl)amino)pyrimidin-4-yl)amino)phenyl)dimethylphosphine oxide]	9.43	8.89	0.01 to 0.05 µM	8810 ng·h/mL	741 ng/mL	4 h	3 h	0.01 to 0.05 µM	7.35			
CP(C)(=O)c1ccccc1Nc1nc(Nc2ccc(N3CCC4(CC3)CC(N)C4)c(Cl)c2)ncc1Cl [Example 8, (2-((2-((4-(2-amino-7-azaspiro[3.5]nonan-7-yl)-3-chlorophenyl)amino)-5-chloropyrimidin-4-yl)amino)phenyl)dimethylphosphine oxide]	9.24	8.80		2820 ng·h/mL	388 ng/mL	2.08 h	3.17 h		7.24	0.0215 µM	0.0173 µM	
CP(C)(=O)c1ccccc1Nc1nc(Nc2ccc(N3CC4(CCC(NCCO)CC4)C3)c(Cl)c2)ncc1Cl [Example 12, (2-((5-chloro-2-((3-chloro-4-(7-((2-hydroxyethyl)amino)-2-azaspiro[3.5]nonan-2-yl)phenyl)amino)pyrimidin-4-yl)amino)phenyl)dimethylphosphine oxide]	9.00							0.01 to 0.05 µM	6.92	0.0244 µM		
CN(C)C1CCC2(CC1)CN(c1ccc(Nc3ncc(Cl)c(Nc4ccccc4P(C)(C)=O)n3)cc1)C2 [Example 13, (2-((5-chloro-2-((4-(7-(dimethylamino)-2-azaspiro[3.5]nonan-2-yl)phenyl)amino)pyrimidin-4-yl)amino)phenyl)dimethylphosphine oxide]	9.22	8.89	≤ 0.01 µM					≤ 0.01 µM	7.38			
CN(C)C1CC2(CCN(c3ccc(Nc4ncc(Cl)c(Nc5ccccc5P(C)(C)=O)n4)cc3)CC2)C1 [Example 17, (2-((5-chloro-2-((4-(2-(dimethylamino)-7-azaspiro[3.5]nonan-7-yl)phenyl)amino)pyrimidin-4-yl)amino)phenyl)dimethylphosphine oxide]	9.15		≤ 0.01 µM					≤ 0.01 µM	7.46			
CN(C)C1CC2(CCN(c3ccc(Nc4ncc(Cl)c(Nc5ccccc5P(C)(C)=O)n4)cc3C(F)(F)F)CC2)C1 [Example 19, (2-((5-chloro-2-((4-(2-(dimethylamino)-7-azaspiro[3.5]nonan-7-yl)-3-(trifluoromethyl)phenyl)amino)pyrimidin-4-yl)amino)phenyl)dimethylphosphine oxide]		8.35	0.01 to 0.05 µM					0.01 to 0.05 µM	6.46			< 6.52
Cc1cc(Nc2nc(Nc3ccccc3P(C)(C)=O)c3nc[nH]c3n2)ccc1N1CCC2(CC1)CC(N)C2 [Example 21, (2-((2-((4-(2-amino-7-azaspiro[3.5]nonan-7-yl)-3-methylphenyl)amino)-9H-purin-6-yl)amino)phenyl)dimethylphosphine oxide]		9.05	> 0.05 µM					> 0.05 µM	6.44			7.70
CP(C)(=O)c1ccccc1Nc1nc(Nc2ccc(N3CCC4(CC3)CC(N)C4)c(F)c2)ncc1Cl [Example 29, (2-((2-((4-(2-amino-7-azaspiro[3.5]nonan-7-yl)-3-fluorophenyl)amino)-5-chloropyrimidin-4-yl)amino)phenyl)dimethylphosphine oxide]		8.80							7.02	0.0169 µM	0.0329 µM	7.46
CP(C)(=O)c1ccccc1Nc1nc(Nc2ccc(N3CCC4(CC3)CC(N3CCCC3)C4)c(Cl)c2)ncc1Cl [Example 33, (2-((5-chloro-2-((3-chloro-4-(2-(pyrrolidin-1-yl)-7-azaspiro[3.5]nonan-7-yl)phenyl)amino)pyrimidin-4-yl)amino)phenyl)dimethylphosphine oxide]	9.40								7.33	0.0097 µM	0.0117 µM	
CN(C)[C@@H]1CCN(C2CC3(CCN(c4ccc(Nc5ncc(Cl)c(Nc6ccccc6P(C)(C)=O)n5)cc4Cl)CC3)C2)C1 [Example 34, (R)-(2-((5-chloro-2-((3-chloro-4-(2-(3-(dimethylamino)pyrrolidin-1-yl)-7-azaspiro[3.5]nonan-7-yl)phenyl)amino)pyrimidin-4-yl)amino)phenyl)dimethylphosphine oxide]	9.28								7.28	0.0147 µM	0.0217 µM	
